{
  "source": "patent US11304930B2",
  "about": "“Ammonium salts of 3-(3,5-dibromo-4-hydroxybenzyliden)-5-indo-1,3-dihydroindol-2-one and uses thereof” (Metagone Biotech Inc., priority 2018, dated 2022)",
  "key": {"SUN-1 cells": {"tested_on": "SUN-1 cells", "experiment": "MTS cell viability / proliferation assay", "assay_type": "cell-based", "details": "72 hrs, in combination with sorafenib", "procedure": "Gastric cancer cell line SUN-1 was purchased from the American Type Culture Collection (ATCC; Manassas, Va., USA) and were maintained in Roswell Park Memorial Institute-1640 (RPMI-1640) supplemented with 1.5 g/L sodium bicarbonate, 10% fetal bovine serum (FBS), 1.0% antibiotic-antimycotic, L-glutamine (2.0×10^−3 M), and 1.0% nonessential amino acids.\nMTS cell proliferation assay kit (Abcam, Cambridge, UK) was used to evaluate cell viability. Briefly, SNU-1 cells were seeded in each well of a 96-well plate at the density of 8,000 cells/well and incubated overnight at 37° C. Cells were then treated with a test drug for 48 or 72 h at 37° C. Then, 20 μl MTS/well was added and incubated for 3 h at 37° C. Cell viability was measured by absorbance at 490 nm in a microplate reader.\nTo validate the bioactivity of the ammonium salts of GW5074 of Example 1, their effects on cell proliferation with or without the addition of another cell proliferation inhibitor-sorafenib, were investigated using MTS cell proliferation assay kit in accordance with the manufacturer's protocols. Results are illustrated FIGS. 1A and 1B."}, "[1]": {"details": "mouse, in vivo, 40 mg/kg", "description": "(§1) B6 mice about 6-8 weeks of age (National laboratory animal center, Taipei, Taiwan) were used in the present study.\n(§2) Pilot PK studies were carried out in mice.\n(§3) Mice were fasting for 8 hrs before dosing. […] Blood samples were drawn from the tail vein at pre-designated time points. Each samples were extracted with 80% ethanol for 30 minutes and individually filtered through a 0.22 μm PVDF filter, then were subjected to HPLC-MS/MS."}, "[2]": {"experiment": "Water solubility of GW5074 salts"}, "[3]": {"experiment": "Pilot pharmacokinetic study in mice", "details": "single dose 40 mg/Kg, GW5074 measured in plasma; for AUC0-t: 0 to 24 hours", "description": "as §1, §2, §3"}},
  "note": "Where two headings read alike, the source gives them in different places.",
  "data": [
    {"compound": "O=C1Nc2ccc(I)cc2C1=Cc1cc(Br)c([O-])c(Br)c1.[Na+]", "note": "[MG-A1, Sodium Salts of GW5074]", "values": [
      {"measurement": "growth inhibition", "setting": "SUN-1 cells", "result": "about 70%"}
    ]},
    {"compound": "O=C1Nc2ccc(I)cc2C1=Cc1cc(Br)c(O)c(Br)c1", "note": "[GW5074, 3-(3,5-dibromo-4-hydroxybenzyliden)-5-iodo-1,3-duhydroindol-2-one]", "values": [
      {"measurement": "growth inhibition", "setting": "SUN-1 cells", "result": "about 70%"},
      {"measurement": "AUC0-t", "setting": "[1]", "result": 6127.9, "unit": "ng·h/mL"},
      {"measurement": "Cmax", "setting": "[1]", "result": 4905.2, "unit": "ng/mL"},
      {"measurement": "T1/2", "setting": "[1]", "result": 3.719, "unit": "h"},
      {"measurement": "Tmax", "setting": "[1]", "result": 0.5, "unit": "h"}
    ]},
    {"compound": "C1COCCN1.O=C1Nc2ccc(I)cc2C1=Cc1cc(Br)c(O)c(Br)c1", "note": "[Morpholine Salt of GW5075]", "values": [
      {"measurement": "Solubility", "setting": "[2]", "result": 0.57, "unit": "mg/100 mL"}
    ]},
    {"compound": "O=C1Nc2ccc(I)cc2C1=Cc1cc(Br)c(O)c(Br)c1.OCCN(CCO)CCO", "note": "[MG-A3, Triethanolamine Salt of GW5075]", "values": [
      {"measurement": "growth inhibition", "setting": "SUN-1 cells", "result": "about 70%"},
      {"measurement": "Cmax", "setting": "[3]", "result": 6844.6, "unit": "ng/mL"},
      {"measurement": "T1/2", "setting": "[3]", "result": 4.364, "unit": "h"},
      {"measurement": "Tmax", "setting": "[3]", "result": 0.5, "unit": "h"},
      {"measurement": "AUC0-t", "setting": "[3]", "result": 8258.7, "unit": "ng·h/mL"}
    ]},
    {"compound": "CC(C)(N)CN.O=C1Nc2ccc(I)cc2C1=Cc1cc(Br)c(O)c(Br)c1", "note": "[MG-A2, 2-Amino-2-Methylpropylamine Salt of GW5075]", "values": [
      {"measurement": "growth inhibition", "setting": "SUN-1 cells", "result": "about 70%"},
      {"measurement": "Solubility", "setting": "[2]", "result": 0.19, "unit": "mg/100 mL"},
      {"measurement": "Cmax", "setting": "[3]", "result": 6447.7, "unit": "ng/mL"},
      {"measurement": "T1/2", "setting": "[3]", "result": 4.855, "unit": "h"},
      {"measurement": "Tmax", "setting": "[3]", "result": 0.5, "unit": "h"},
      {"measurement": "AUC0-t", "setting": "[3]", "result": 7936.2, "unit": "ng·h/mL"}
    ]}
  ]
}
